From the NIST ThermoML archive (doi:10.1021/je020067x)
Numbers after ± are expanded uncertainties.

Experiments:
[1] = 303.15 K, 101.33 kPa, Liquid; for viscosity: Capillary tube (Ostwald / Ubbelohde) method; for mass density: Vibrating tube method
[2] = xn = mol fraction of the nth substance listed; details: 303.15 K, 101.33 kPa, Liquid; for viscosity: Capillary tube (Ostwald / Ubbelohde) method; for mass density: Vibrating tube method

ClCCl [dichloromethane]
viscosity [1]: 0.3929 ± 0.0035 mPa·s
mass density [1]: 1307.6 ± 0.7 kg/m3

ClCCl [dichloromethane] + ClC(Cl)Cl
viscosity ([2]; x1 = 0.0633): 0.504 ± 0.0043 mPa·s
viscosity ([2]; x1 = 0.1191): 0.4976 ± 0.0043 mPa·s
viscosity ([2]; x1 = 0.1924): 0.4892 ± 0.0042 mPa·s
viscosity ([2]; x1 = 0.3101): 0.4741 ± 0.0041 mPa·s
viscosity ([2]; x1 = 0.3607): 0.4686 ± 0.0041 mPa·s
viscosity ([2]; x1 = 0.4299): 0.4602 ± 0.004 mPa·s
viscosity ([2]; x1 = 0.5221): 0.4501 ± 0.0039 mPa·s
viscosity ([2]; x1 = 0.6464): 0.4352 ± 0.0038 mPa·s
viscosity ([2]; x1 = 0.6833): 0.4301 ± 0.0038 mPa·s
viscosity ([2]; x1 = 0.74): 0.4236 ± 0.0037 mPa·s
viscosity ([2]; x1 = 0.7979): 0.4163 ± 0.0037 mPa·s
viscosity ([2]; x1 = 0.8681): 0.4083 ± 0.0036 mPa·s
viscosity ([2]; x1 = 0.9034): 0.404 ± 0.0036 mPa·s
viscosity ([2]; x1 = 0.9358): 0.4005 ± 0.0036 mPa·s
mass density ([2]; x1 = 0.0633): 1462.3 ± 0.8 kg/m3
mass density ([2]; x1 = 0.1191): 1454.8 ± 0.8 kg/m3
mass density ([2]; x1 = 0.1924): 1444.7 ± 0.7 kg/m3
mass density ([2]; x1 = 0.3101): 1427.8 ± 0.7 kg/m3
mass density ([2]; x1 = 0.3607): 1420.3 ± 0.7 kg/m3
mass density ([2]; x1 = 0.4299): 1409.7 ± 0.7 kg/m3
mass density ([2]; x1 = 0.5221): 1395.1 ± 0.7 kg/m3
mass density ([2]; x1 = 0.6464): 1374.3 ± 0.7 kg/m3
mass density ([2]; x1 = 0.6833): 1367.8 ± 0.7 kg/m3
mass density ([2]; x1 = 0.74): 1357.8 ± 0.7 kg/m3
mass density ([2]; x1 = 0.7979): 1347.1 ± 0.7 kg/m3
mass density ([2]; x1 = 0.8681): 1333.9 ± 0.7 kg/m3
mass density ([2]; x1 = 0.9034): 1327 ± 0.7 kg/m3
mass density ([2]; x1 = 0.9358): 1320.6 ± 0.7 kg/m3

ClC(Cl)(Cl)Cl [tetrachloromethane]
viscosity [1]: 0.8403 ± 0.0068 mPa·s
mass density [1]: 1575 ± 0.8 kg/m3

ClC(Cl)(Cl)Cl [tetrachloromethane] + ClC(Cl)Cl
viscosity ([2]; x1 = 0.0591): 0.5216 ± 0.0044 mPa·s
viscosity ([2]; x1 = 0.075): 0.5248 ± 0.0045 mPa·s
viscosity ([2]; x1 = 0.1297): 0.5343 ± 0.0045 mPa·s
viscosity ([2]; x1 = 0.2236): 0.5538 ± 0.0047 mPa·s
viscosity ([2]; x1 = 0.2777): 0.5658 ± 0.0048 mPa·s
viscosity ([2]; x1 = 0.3416): 0.5811 ± 0.0049 mPa·s
viscosity ([2]; x1 = 0.434): 0.6041 ± 0.005 mPa·s
viscosity ([2]; x1 = 0.4886): 0.6201 ± 0.0052 mPa·s
viscosity ([2]; x1 = 0.5736): 0.6486 ± 0.0054 mPa·s
viscosity ([2]; x1 = 0.6646): 0.6807 ± 0.0056 mPa·s
viscosity ([2]; x1 = 0.7747): 0.7256 ± 0.0059 mPa·s
viscosity ([2]; x1 = 0.8186): 0.7458 ± 0.0061 mPa·s
viscosity ([2]; x1 = 0.8904): 0.7804 ± 0.0063 mPa·s
viscosity ([2]; x1 = 0.9305): 0.8017 ± 0.0065 mPa·s
mass density ([2]; x1 = 0.0591): 1477.2 ± 0.8 kg/m3
mass density ([2]; x1 = 0.075): 1479 ± 0.8 kg/m3
mass density ([2]; x1 = 0.1297): 1485.1 ± 0.8 kg/m3
mass density ([2]; x1 = 0.2236): 1495.3 ± 0.8 kg/m3
mass density ([2]; x1 = 0.2777): 1501.2 ± 0.8 kg/m3
mass density ([2]; x1 = 0.3416): 1508.1 ± 0.8 kg/m3
mass density ([2]; x1 = 0.434): 1517.9 ± 0.8 kg/m3
mass density ([2]; x1 = 0.4886): 1523.6 ± 0.8 kg/m3
mass density ([2]; x1 = 0.5736): 1532.5 ± 0.8 kg/m3
mass density ([2]; x1 = 0.6646): 1541.8 ± 0.8 kg/m3
mass density ([2]; x1 = 0.7747): 1552.9 ± 0.8 kg/m3
mass density ([2]; x1 = 0.8186): 1557.3 ± 0.8 kg/m3
mass density ([2]; x1 = 0.8904): 1564.4 ± 0.8 kg/m3
mass density ([2]; x1 = 0.9305): 1568.3 ± 0.8 kg/m3

ClC(Cl)(Cl)Cl [tetrachloromethane] + ClCCl
viscosity ([2]; x1 = 0.0375): 0.4008 ± 0.0037 mPa·s
viscosity ([2]; x1 = 0.0622): 0.4061 ± 0.0037 mPa·s
viscosity ([2]; x1 = 0.0791): 0.4097 ± 0.0038 mPa·s
viscosity ([2]; x1 = 0.0889): 0.412 ± 0.0038 mPa·s
viscosity ([2]; x1 = 0.1254): 0.421 ± 0.0038 mPa·s
viscosity ([2]; x1 = 0.2047): 0.441 ± 0.004 mPa·s
viscosity ([2]; x1 = 0.2305): 0.4479 ± 0.004 mPa·s
viscosity ([2]; x1 = 0.297): 0.4669 ± 0.0042 mPa·s
viscosity ([2]; x1 = 0.3695): 0.4897 ± 0.0043 mPa·s
viscosity ([2]; x1 = 0.4985): 0.5369 ± 0.0047 mPa·s
viscosity ([2]; x1 = 0.4986): 0.5374 ± 0.0047 mPa·s
viscosity ([2]; x1 = 0.4997): 0.5375 ± 0.0047 mPa·s
viscosity ([2]; x1 = 0.5631): 0.564 ± 0.0049 mPa·s
viscosity ([2]; x1 = 0.609): 0.5853 ± 0.005 mPa·s
viscosity ([2]; x1 = 0.6845): 0.6223 ± 0.0053 mPa·s
viscosity ([2]; x1 = 0.8006): 0.6894 ± 0.0058 mPa·s
viscosity ([2]; x1 = 0.8032): 0.6915 ± 0.0058 mPa·s
viscosity ([2]; x1 = 0.8652): 0.7331 ± 0.0061 mPa·s
viscosity ([2]; x1 = 0.9279): 0.7792 ± 0.0064 mPa·s
viscosity ([2]; x1 = 0.9677): 0.8116 ± 0.0066 mPa·s
mass density ([2]; x1 = 0.0375): 1321.5 ± 0.7 kg/m3
mass density ([2]; x1 = 0.0622): 1330.4 ± 0.7 kg/m3
mass density ([2]; x1 = 0.0791): 1336.4 ± 0.7 kg/m3
mass density ([2]; x1 = 0.0889): 1339.9 ± 0.7 kg/m3
mass density ([2]; x1 = 0.1254): 1352.4 ± 0.7 kg/m3
mass density ([2]; x1 = 0.2047): 1378.4 ± 0.7 kg/m3
mass density ([2]; x1 = 0.2305): 1386.5 ± 0.7 kg/m3
mass density ([2]; x1 = 0.297): 1406.7 ± 0.7 kg/m3
mass density ([2]; x1 = 0.3695): 1427.7 ± 0.7 kg/m3
mass density ([2]; x1 = 0.4985): 1462.5 ± 0.8 kg/m3
mass density ([2]; x1 = 0.4986): 1462.5 ± 0.8 kg/m3
mass density ([2]; x1 = 0.4997): 1462.8 ± 0.8 kg/m3
mass density ([2]; x1 = 0.5631): 1478.9 ± 0.8 kg/m3
mass density ([2]; x1 = 0.609): 1490.1 ± 0.8 kg/m3
mass density ([2]; x1 = 0.6845): 1508 ± 0.8 kg/m3
mass density ([2]; x1 = 0.8006): 1533.9 ± 0.8 kg/m3
mass density ([2]; x1 = 0.8032): 1534.5 ± 0.8 kg/m3
mass density ([2]; x1 = 0.8652): 1547.7 ± 0.8 kg/m3
mass density ([2]; x1 = 0.9279): 1560.7 ± 0.8 kg/m3
mass density ([2]; x1 = 0.9677): 1568.6 ± 0.8 kg/m3

ClC(Cl)Cl [trichloromethane]
viscosity [1]: 0.5118 ± 0.0044 mPa·s
mass density [1]: 1470.5 ± 0.8 kg/m3
